Experimental data taken from patent US3997549A, “N-arylsulfenylated derivatives of benzofuranyl methylcarbamates” (priority 1973, dated 1976).
≈ marks a conversion by molar mass, not a printed value. Like-named read-outs stand apart in the source and are kept apart here.

Experiments:
in vivo = settings: mouse, po
Procedure: Acute oral toxicity of the compounds of the present invention to mice was determined after the manner of Hollingworth, Fukuto, and Metcalf in J. Agr. […] A dose of 0.25 ml of each solution was administered to each of four female white Swiss mice using the "bolus" - tipped syringe. […] Final mortality determinations were made forty-eight hours after treatment.

two-spotted spider mite = experiment: whole plant or invertebrate; settings: Tetranychus urticae, 48 h; for mortality at 39 ppm: read-out: % Kill, SM (systemic), 39 ppm soil watering; for mortality at 156 ppm: read-out: % Kill, SM (systemic), 156 ppm soil watering
Culex fatigans = experiment: whole plant or invertebrate; settings: Culex quinquefasciatus, 24 h, read-out: Mosquitoes LC50
Procedure: The appropriate amount of stock solution was added with stirring to 100 ml of tap water and 20-25 fourth instar larvae of Culex fatigans were placed in the solution. After twenty-four hours, the counts were taken. Larvae not able to rise to the surface on touch were counted as dead. Each concentration was run in duplicate and each material was run on two or three different days. The average percent mortality was plotted against the logarithm of the concentration (in ppm) and the LC50 value determined by inspection.

southern army worm = settings: 2880 min
Mexican bean beetle = experiment: whole plant or invertebrate; settings: Epilachna varivestis, 48 h, read-out: % Kill, BB (systemic)
pea aphid = experiment: whole plant or invertebrate; settings: Acyrthosiphon pisum, 48 h, read-out: % Kill, PA (systemic)
houseflies = experiment: whole plant or invertebrate; settings: Musca domestica, topical, 24 h, read-out: Houseflies LD50
Procedure: Toxicity of the compounds of the present invention to houseflies was tested using the technique described by March and Metcalf in Bull. Calif. State Dept. Agr. […] Adult female houseflies were treated with one drop of acetone solution, applied to the prothorax, using a syringe calibrated to deliver 1.00 ± 0.05 mm^3 drops. Twenty flies were treated at each dosage, each test compound was applied at 8 to 10 dosage levels. Each test was replicated three times. […] A one-inch square of cotton saturated with 40% sugar solution was provided for food in each carton. The cartons of flies were held in a constant temperature chamber at 60° F and 60% relative humidity for 24 hours before mortality counts were made. Flies totally unable to make crawling or walking movements were counted as dead. LD50 values were calculated in the conventional manner.

[1] = group printed before the slash (separate test vs carbofuran)

SMILES | LD50 at 48 h (in vivo) | LC50 (Culex fatigans) | LD50 (houseflies) | other results
CNC(=O)Oc1cccc2c1OC(C)(C)C2 [Carbofuran, 2,3-dihydro-2,2-dimethyl-7-benzofuranyl methylcarbamate, reference compound] | 2 mg/kg | 52 ng/mL (≈ 0.235 µM) |  | mortality at 39 ppm (two-spotted spider mite; [1]): 5%; mortality at 39 ppm (two-spotted spider mite; separate test vs carbofuran): 3%; mortality at 156 ppm (two-spotted spider mite; [1]): 43%; mortality at 156 ppm (two-spotted spider mite; separate test vs carbofuran): 70%; % Kill, AW (systemic) (southern army worm; 39 ppm soil watering, group printed before the slash (separate test vs carbofuran)): 50%; % Kill, AW (systemic) (southern army worm; 39 ppm soil watering, separate test vs carbofuran): 100%; % Kill, AW (systemic) (southern army worm; 156 ppm soil watering): 100%; mortality at 39 ppm (Mexican bean beetle): 100%; mortality at 156 ppm (Mexican bean beetle): 100%; mortality at 39 ppm (pea aphid): 100%; mortality at 156 ppm (pea aphid): 100%
CN(Sc1ccccc1)C(=O)Oc1cccc2c1OC(C)(C)C2 [Example I, 2,3-Dihydro-2,2-dimethyl-7-benzofuranyl (methyl)(phenylthio)carbamate] | 25 to 50 mg/kg | 4.5 ng/mL (≈ 0.0137 µM) | 9.3 mg/kg | 
COc1ccc(SN(C)C(=O)Oc2cccc3c2OC(C)(C)C3)cc1 [IX, 2,3-Dihydro-2,2-dimethyl-7-benzofuranyl (4-methoxyphenylthio)(methyl)carbamate] | 25 to 50 mg/kg | 6 ng/mL (≈ 0.0167 µM) | 7.8 mg/kg | 
CN(Sc1ccc(Br)cc1)C(=O)Oc1cccc2c1OC(C)(C)C2 [VIII, 2,3-Dihydro-2,2-dimethyl-7-benzofuranyl (4-bromophenylthio)(methyl)carbamate] | 50 to 75 mg/kg | 4 ng/mL (≈ 0.0098 µM) | 9 mg/kg | 
CC(C)c1ccccc1SN(C)C(=O)Oc1cccc2c1OC(C)(C)C2 [XII, 2,3-Dihydro-2,2-dimethyl-7-benzofuranyl (2-isopropylphenylthio) (methyl)carbamate] | 50 to 75 mg/kg | 3 ng/mL (≈ 0.00808 µM) | 8.3 mg/kg | 
Cc1ccc(SN(C)C(=O)Oc2cccc3c2OC(C)(C)C3)c(C)c1 [XIII, 2,3-Dihydro-2,2-dimethyl-7-benzofuranyl (2,4-dimethylphenylthio)(methyl)carbamate] | 50 to 100 mg/kg | 3 ng/mL (≈ 0.00839 µM) | 9 mg/kg | 
CN(Sc1ccc(C#N)cc1)C(=O)Oc1cccc2c1OC(C)(C)C2 [XV, 2,3-Dihydro-2,2-dimethyl-7-benzofuranyl (4-cyanophenylthio)(methyl)carbamate] | 25 to 50 mg/kg | 22 ng/mL (≈ 0.0621 µM) | 22.5 mg/kg | 
CN(Sc1ccc2ccccc2c1)C(=O)Oc1cccc2c1OC(C)(C)C2 [XVII, 2,3-Dihydro-2,2-dimethyl-7-benzofuranyl (methyl)(2-naphthylthio)carbamate] | 40 mg/kg | 3.2 ng/mL (≈ 0.00843 µM) | 8 mg/kg | 
